The values that follow come from patent US20230144436A1, “MUSCLE TARGETING COMPLEXES AND USES THEREOF FOR TREATING MYOTONIC DYSTROPHY” (Dyne Therapeutics, Inc., priority 2020, published 2023).

Data set [1] relates to DMPK. As to the kind of experiment: DMPK knockdown by transfected antisense oligonucleotides in DM1 C15 myotubes at 0.5 nM and 50 nM. It is filed as cell-based. The conditions noted are these: 72 hours, qPCR; for Percent DMPK Reduction: relative to vehicle control; for Normalized DMPK Remaining: relative to vehicle control = 1.00. The method in brief: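 DMPK remaining was measured by qPCR 72 h post-transfection, normalized to lipofectamine-only vehicle wells (=1.00). Oligonucleotides were delivered at 0.5 and 50 nM final to DM1 C15 myoblasts differentiated seven days into myotubes, in triplicate.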
A general note: In qPCR the cycle at which signal appears reflects the starting amount.

The test system of data set [2] is DMPK. Description: Dose-responsive DMPK reduction in DM1 C15 myotubes (EC-50). It is filed as cell-based. Conditions: DM1 C15 differentiated myotubes, 72 hours; for EC50: transfection with Lipofectamine MessengerMax, 0.046-100 nM; for Percent DMPK reduction at 100 nM: transfection. As for the experimental part: Eighteen oligonucleotides from Example 7 were selected to be evaluated for their ability to reduce DMPK expression in a dose-responsive manner. DM1 C15 myoblasts were prepared as in Example 7 to yield differentiated myotubes in 96-well microplates. After seven days of differentiation, cells were transfected with individual oligonucleotides using Lipofectamine MessengerMax. Each oligonucleotide was tested in triplicate at concentrations of 0.046 nM, 0.137 nM, 0.412 nM, 1.235 nM, 3.704 nM, 11.11 nM, 33.33 nM, and 100 nM by 3-fold serial dilutions using 0.3 μL of Lipofectamine MessengerMax per well.
Following addition of oligonucleotide, cells were incubated for 72 hours prior to harvesting for total RNA. cDNA was synthesized from the total RNA extracts and qPCR was performed to determine expression levels of DMPK using a commercially available Taqman probeset in technical quadruplicate. All qPCR data were analyzed using a traditional ΔΔCT method and were normalized to a plate-based negative control that comprised of cells treated with vehicle control (0.3 μL/well Lipofectamine MessengerMax without any oligonucleotide). Data for each oligonucleotide to was fit to sigmoidal curve in order to determine an effective concentration of each oligonucleotide that provided a half-maximal response (EC-50).

Data set [3] relates to DMPK. Description: DMPK expression in RD cells treated with free or transfected DMPK-targeting oligonucleotides. The data set is classed as cell-based. Conditions: free (gymnotic) or transfected, 3 days. As for the experimental part:
The duration of treatment was 3 days. DMPK-targeting oligonucleotides were delivered to the cells as free oligonucleotides (gymnotic uptake, “free”) or with transfection reagent (“trans”).
DMPK-targeting oligonucleotides (e.g., ASO) were tested in rhabdomyosarcoma (RD) cells for knockdown of DMPK transcript expression. RD cells were cultured in a growth medium of DMEM with glutamine, supplemented with 10% FBS and penicillin/streptomycin until nearly confluent. Cells were then seeded into a 96 well plate at 20K cells per well and were allowed to recover for 24 hours. Cells were then treated with free DMPK-targeting oligonucleotides or by transfection of the oligonucleotides using 0.3 μL per well of Lipofectamine MessengerMAX transfection reagent. After 3 days, total RNA was collected from cells, cDNA was synthesized and DPMK expression was measured by qPCR.

The subject of data set [4] is DMPK. As to the kind of experiment: Dose response of antisense oligonucleotides in DMPK knockdown in NHP myotubes. It is filed as cell-based, non-human primate. An excerpt:
FIGS. 19A-19B depict non-limiting schematics showing the dose response of selected antisense oligonucleotides in DMPK knockdown in non-human primate (NHP) DM1 myotubes. Control DMPK-ASO was used as control.
(§1) The antisense oligonucleotides listed in Table 11 were further assessed to identify oligos that are safe in vivo (e.g., as indicated by low immunogenicity as measured by cytokine induction), and further based on manufacturability and secondary structure considerations. Three antisense oligonucleotides from Table 11, […] (SEQ ID NO: 310, DMPK-ASO-1), […] (SEQ ID NO: 320, DMPK-ASO-2), and […] (SEQ ID NO: 278, DMPK-ASO-3) were selected. These oligonucleotides were then further evaluated for their ability to reduce DMPK expression in DM1 myotubes and NHP myotubes in a dose-responsive manner. The tool compound (control DMPK-ASO) was used as control.

Data set [5] has as its system DMPK. Description: Dose response of antisense oligonucleotides in DMPK knockdown in human DM1 myotubes. The data set is classed as cell-based.
From the text: FIGS. 18A-18C depict non-limiting schematics showing the dose response of selected antisense oligonucleotides in DMPK knockdown in human DM1 myotubes. ControlDMPK-ASO was used as control. […] Statistical analysis: One-way ANOVA with Tukey's HSD post-hoc test vs. control DMPK-ASO treatment; *p<0.05, **p<0.01, ***p<0.001, ****p<0.0001.
as §1

Data set [6] concerns mouse muscle tissue. The conditions noted are these: cited from earlier work.
For data set [7], the system named is C2C12 murine myotubes. Conditions: in vitro, phage display; cited from earlier work.

A word on the EC50: it is the midpoint of the concentration-response curve. Higher therefore signals a less potent agent. Take “294 (CGUUCCAUCUGCCCGCAGCU; chemistry not given here) [compound 294]”: in data set [1] (0.5 nM oligonucleotide), the “Percent DMPK Reduction” value came to 33.74% and the “Normalized DMPK Remaining” value turned out to be 0.66. In data set [1] (50 nM oligonucleotide), the “Percent DMPK Reduction” value is reported as 68.72% and the “Normalized DMPK Remaining” value stood at 0.31. In data set [2], the EC50 was found to be 190 pM and the “Percent DMPK reduction at 100 nM” value is on record as 89.97%.
With “280 (UUGCCAUAGGUCUCCGCCGU; chemistry not given here) [compound 280]”, in data set [1] (0.5 nM oligonucleotide), the “Percent DMPK Reduction” value turned out to be 36.30% and the “Normalized DMPK Remaining” value is reported as 0.64. For the same substance, in data set [1] (50 nM oligonucleotide), the “Percent DMPK Reduction” value came out at 60.12% and the “Normalized DMPK Remaining” value was 0.40. Besides, in data set [2], the half-maximal effective concentration (EC50) turned out to be 370 pM and the “Percent DMPK reduction at 100 nM” value turned out to be 93.70%.
In the case of “293 (GAAUGUCCGACAGUGUCUCC; chemistry not given here) [compound 293]”, in data set [1] (0.5 nM oligonucleotide), the “Percent DMPK Reduction” value is 30.09% and the “Normalized DMPK Remaining” value was determined as 0.70. Moreover, in data set [1] (50 nM oligonucleotide), the “Percent DMPK Reduction” value is listed as 63.41% and the “Normalized DMPK Remaining” value turned out to be 0.37. In data set [2], the EC50 was 70 pM and the “Percent DMPK reduction at 100 nM” value came to 97.23%.
For the substance “299 (GCAGGAUGUUGUCGGGUUUG; chemistry not given here) [compound 299]”, in data set [1] (0.5 nM oligonucleotide), the “Percent DMPK Reduction” value came out at 44.39% and the “Normalized DMPK Remaining” value is 0.56. In data set [1] (50 nM oligonucleotide), the “Percent DMPK Reduction” value is 78.03% and the “Normalized DMPK Remaining” value worked out at 0.22. Further, in data set [2], the response was half-maximal at 168 pM (EC50) and the “Percent DMPK reduction at 100 nM” value amounted to 89.77%.
With “CCCAGCGCCCACCAGUCACA (chemistry not given here) [SEQ ID NO: 320, DMPK-targeting antisense oligonucleotide]”, the “DMPK expression level relative to PBS-treated cells” value in data set [3] is “reduced”. In addition, the “DMPK knockdown in NHP myotubes” value in data set [4] was “dose-dependently reducing DMPK”. Also, the “DMPK knockdown in DM1 myotubes” value in data set [5] is given as “dose-dependently reducing DMPK”.
On to “270 (GGGCCUGGGACCUCACUGUC; chemistry not given here) [compound 270]”, for which, in data set [1] (0.5 nM oligonucleotide), the “Percent DMPK Reduction” value came out at 37.19% and the “Normalized DMPK Remaining” value is recorded as 0.63. Besides, in data set [1] (50 nM oligonucleotide), the “Percent DMPK Reduction” value worked out at 76.81% and the “Normalized DMPK Remaining” value turned out to be 0.23. Further, in data set [2], the EC50 worked out at 70 pM and the “Percent DMPK reduction at 100 nM” value is recorded as 90.58%.
In the case of “362 (GCUGUCCCGGAGACCAUCCC; chemistry not given here) [compound 362]”, in data set [1] (0.5 nM oligonucleotide), the “Percent DMPK Reduction” value was determined as 22.57% and the “Normalized DMPK Remaining” value is 0.77. Further, in data set [1] (50 nM oligonucleotide), the “Percent DMPK Reduction” value is 66.27% and the “Normalized DMPK Remaining” value is on record as 0.34. Further, in data set [2], the EC50 came to 3270 pM and the “Percent DMPK reduction at 100 nM” value is given as 93.07%.
For “310 (GCGUAGAAGGGCGUCUGCCC; chemistry not given here) [compound 310]”, in data set [1] (0.5 nM oligonucleotide), the “Percent DMPK Reduction” value is listed as 39.53% and the “Normalized DMPK Remaining” value came to 0.60. Moreover, in data set [1] (50 nM oligonucleotide), the “Percent DMPK Reduction” value worked out at 77.91% and the “Normalized DMPK Remaining” value was 0.22. In addition, in data set [2], the EC50 came to 24600 pM and the “Percent DMPK reduction at 100 nM” value came to 95.13%.
In the case of “316 (AGCAGGAUGUUGUCGGGUUU; chemistry not given here) [compound 316]”, in data set [1] (0.5 nM oligonucleotide), the “Percent DMPK Reduction” value worked out at 41.05% and the “Normalized DMPK Remaining” value is 0.59. Moreover, in data set [1] (50 nM oligonucleotide), the “Percent DMPK Reduction” value is 74.02% and the “Normalized DMPK Remaining” value is 0.26. In addition, in data set [2], the EC50 came to 227 pM and the “Percent DMPK reduction at 100 nM” value was 85.81%.
For the substance “ASSLNIA [muscle-specific heptapeptide identified by phage display]”, the “specificity for binding to heart and skeletal muscle tissue” value in data set [6] (after intravenous injection in mice, reduced binding to liver, kidney, and brain) was “improved specificity for binding to heart and skeletal muscle tissue”. Besides, in data set [6] (in vivo), the “binding to mouse muscle tissue” value is on record as “bound to mouse muscle tissue in vivo”. Further, in data set [7], the “binding to C2C12 cells” value is “bound to C2C12 murine myotubes in vitro”.
With “CCAUCUCGGCCGGAAUCCGC (chemistry not given here) [SEQ ID NO: 278, DMPK-targeting antisense oligonucleotide]”, the “DMPK expression level relative to PBS-treated cells” value in data set [3] is recorded as “reduced”. Besides, the “DMPK knockdown in NHP myotubes” value in data set [4] is given as “dose-dependently reducing DMPK”. Moreover, the “DMPK knockdown in DM1 myotubes” value in data set [5] is recorded as “dose-dependently reducing DMPK”.
On to “260 (CGAAUGUCCGACAGUGUCUC; chemistry not given here) [compound 260]”, for which, in data set [1] (0.5 nM oligonucleotide), the “Percent DMPK Reduction” value stood at 40.21% and the “Normalized DMPK Remaining” value came to 0.60. In data set [1] (50 nM oligonucleotide), the “Percent DMPK Reduction” value amounted to 64.42% and the “Normalized DMPK Remaining” value is listed as 0.36. For the same substance, in data set [2], the EC50 turned out to be 180 pM and the “Percent DMPK reduction at 100 nM” value stood at 95.93%.
For “288 (CAGGGACAGCCGCUGGAACU; chemistry not given here) [compound 288]”, in data set [1] (0.5 nM oligonucleotide), the “Percent DMPK Reduction” value is 32.09% and the “Normalized DMPK Remaining” value was 0.68. Moreover, in data set [1] (50 nM oligonucleotide), the “Percent DMPK Reduction” value was determined as 58.84% and the “Normalized DMPK Remaining” value came to 0.41. In data set [2], the EC50 was found to be 6040 pM and the “Percent DMPK reduction at 100 nM” value stood at 90.59%.
Consider “SKTFNTHPQSTP [12 amino acid muscle-targeting peptide identified by phage display]”, for which the “binding to C2C12 cells” value in data set [7] is “improved binding to C2C12 cells relative to the ASSLNIA”.
Consider “346 (GACAGAACAACGGCGAACAG; chemistry not given here) [compound 346]”, for which, in data set [1] (0.5 nM oligonucleotide), the “Percent DMPK Reduction” value was 21.41% and the “Normalized DMPK Remaining” value was found to be 0.79. Moreover, in data set [1] (50 nM oligonucleotide), the “Percent DMPK Reduction” value is recorded as 70.49% and the “Normalized DMPK Remaining” value was determined as 0.30. Moreover, in data set [2], the concentration for a half-maximal effect (EC50) worked out at 80 pM and the “Percent DMPK reduction at 100 nM” value came to 94.32%.
Consider “257 (CAUGGCAUACACCUGGCCCG; chemistry not given here) [compound 257]”, for which, in data set [1] (0.5 nM oligonucleotide), the “Percent DMPK Reduction” value was determined as 31.63% and the “Normalized DMPK Remaining” value is 0.68. Besides, in data set [1] (50 nM oligonucleotide), the “Percent DMPK Reduction” value was found to be 74.03% and the “Normalized DMPK Remaining” value was determined as 0.26. Also, in data set [2], the midpoint of the response, the EC50, lay at 420 pM and the “Percent DMPK reduction at 100 nM” value is reported as 75.28%.
For “272 (CUCUGCCGCAGGGACAGCCG; chemistry not given here) [compound 272]”, in data set [1] (0.5 nM oligonucleotide), the “Percent DMPK Reduction” value is 37.09% and the “Normalized DMPK Remaining” value is 0.63. For the same substance, in data set [1] (50 nM oligonucleotide), the “Percent DMPK Reduction” value turned out to be 93.59% and the “Normalized DMPK Remaining” value amounted to 0.06. Besides, in data set [2], the half-maximal effective concentration (EC50) was found to be 420 pM and the “Percent DMPK reduction at 100 nM” value was determined as 93.66%.
Turning to “GCGUAGAAGGGCGUCUGCCC (chemistry not given here) [SEQ ID NO: 310, DMPK-targeting antisense oligonucleotide]”, in data set [3], the “DMPK expression level relative to PBS-treated cells” value is “reduced”. The “DMPK knockdown in NHP myotubes” value in data set [4] is given as “dose-dependently reducing DMPK”. Besides, the “DMPK knockdown in DM1 myotubes” value in data set [5] is given as “dose-dependently reducing DMPK”.
